Measurements published in patent publication US20240393292A1, “ALLERGY ANTIGEN AND EPITOPE THEREOF” (HOYU CO., LTD., priority 2019, published 2024).

Test system: IgE antibodies from patients
Experiment: Wheat epitope mapping (2): overlapping 10-amino-acid peptide fragments shifted by one amino acid;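 for Rank of partial sequence as epitope binding to IgE antibody: key = sequence deemed particularly important within the common 15-residue sequence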;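 for epitope sequence binding to IgE antibody, rank (Key/Preferably/More preferably): key of grades: preferably = shorter partial sequence still acting as epitope; more preferably = sequence improving IgE binding; key = particularly important sequence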
Assay type: binding, human
How it was run: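 Residual binding was banded as <30% none, 30–<50% poor, 50–<70% somewhat poor and ≥70% retained, relative to the parent overlapping sequence set to 100%. Values were chemiluminescent IgE signals from patient sera after subtracting secondary-antibody-only controls. The peptides were spot-synthesised 10-mers shifted by one amino acid.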

[1] = serum of patient P16 (WDEIA), sequence without X
[2] = serum of patient P3 (WDEIA), sequence without X
[3] = serum of patient P17 (WDEIA), sequence without X
[4] = serum of patient P53 (child, general immediate type allergy to wheat), sequence without X
[5] = serum of patient P21 (WDEIA), sequence without X
[6] = serum of patient G5 (adult, general immediate type allergy to wheat)
[7] = serum of patient P18 (WDEIA), partial sequence
[8] = serum of patient P12 (WDEIA), sequence without X

2224 (IRNYRVA; REGION 1..7: note = epitope) [compound 2224]
Epitope sequence binding to IgE antibody, rank of the sequence (Key/Preferably/More preferably) [1]: Key

1728 (KEAANF; REGION 1..6: note = epitope) [compound 1728]
epitope sequence binding to IgE antibody, rank (Key/Preferably/More preferably) (serum of patient P52 (child, general immediate type allergy to wheat)): Key

1763 (LKKVGYN; REGION 1..7: note = epitope) [compound 1763]
epitope sequence binding to IgE antibody, rank (Key/Preferably/More preferably) (serum of patient P27 (WDEIA)): Key

1924 (FPGQQ; REGION 1..5: note = epitope) [compound 1924]
epitope sequence binding to IgE antibody, rank (Key/Preferably/More preferably) (serum of patient P12 (WDEIA)): Key

1860 (TVRTLQ; REGION 1..6: note = epitope) [compound 1860]
epitope sequence binding to IgE antibody, rank (Key/Preferably/More preferably) (serum of patient P19 (WDEIA)): Key

1305 (NRRALR; REGION 1..6: note = epitope) [compound 1305]
Epitope sequence binding to IgE antibody, rank of the sequence [2]: Key

2734 (YKIGG; REGION 1..5: note = epitope) [compound 2734]
Epitope sequence binding to IgE antibody, rank of the sequence (serum of patient P29 (WDEIA), partial sequence): Key

1245 (PQQPPC; REGION 1..6: note = epitope) [compound 1245]
Epitope sequence binding to IgE antibody, rank of the sequence (serum of patient P31 (WDEIA), sequence without X): Preferably

1672 (PDKVPFVPIS; REGION 1..10: note = epitope) [compound 1672]
Rank of partial sequence as epitope binding to IgE antibody (serum of patient G4 (adult, general immediate type allergy to wheat), sequence without X): Key

1684 (FVPISG; REGION 1..6: note = epitope) [compound 1684]
Rank of partial sequence as epitope binding to IgE antibody (serum of patient G9 (adult, general immediate type allergy to wheat), sequence without X): Key

2226 (RNYR; REGION 1..4: note = epitope) [compound 2226]
Epitope sequence binding to IgE antibody, rank of the sequence (Key/Preferably/More preferably) [3]: Key

1654 (YNPDKVPF; REGION 1..8: note = epitope) [compound 1654]
Rank of partial sequence as epitope binding to IgE antibody (serum of patient P51 (child, general immediate type allergy to wheat), sequence without X): Key

1427 (YLQPQQPISQ; REGION 1..10: note = epitope) [compound 1427]
Rank of partial sequence as epitope binding to IgE antibody (serum of patient P14 (WDEIA), sequence without X): More preferably

1170 (FPPQQP; REGION 1..6: note = epitope) [compound 1170]
Epitope sequence binding to IgE antibody, rank of the sequence [2]: Key

1235 (PQQPP; REGION 1..5: note = epitope) [compound 1235]
Epitope sequence binding to IgE antibody, rank of the sequence [3]: Key

1821 (SGKELEALPK; REGION 1..10: note = epitope) [compound 1821]
epitope sequence binding to IgE antibody, rank (Key/Preferably/More preferably) (serum of patient P34 (WDEIA)): Key

2383 (HDIDRCAY; REGION 1..8: note = epitope) [compound 2383]
Epitope sequence binding to IgE antibody, rank of the sequence (Key/Preferably/More preferably) (serum of patient P29 (WDEIA), sequence without X): Key

1914 (QQFPGQQ; REGION 1..7: note = epitope) [compound 1914]
epitope sequence binding to IgE antibody, rank (Key/Preferably/More preferably) (serum of patient P8 (WDEIA)): Key

2256 (LRGIRN; REGION 1..6: note = epitope) [compound 2256]
Epitope sequence binding to IgE antibody, rank of the sequence (Key/Preferably/More preferably) [4]: Key

1518 (QVPLVQQ; REGION 1..7: note = epitope) [compound 1518]
Rank of partial sequence as epitope binding to IgE antibody (serum of patient P7 (WDEIA), sequence without X): Preferably

1236 (PQQPP; REGION 1..5: note = epitope) [compound 1236]
Epitope sequence binding to IgE antibody, rank of the sequence [5]: Key

2707 (YKIGGIGT; REGION 1..8: note = epitope) [compound 2707]
Epitope sequence binding to IgE antibody, rank of the sequence (serum of patient P8 (WDEIA), partial sequence): Key

2480 (KAWSG; REGION 1..5: note = epitope) [compound 2480]
Epitope sequence binding to IgE antibody, rank of the sequence (Key/Preferably/More preferably) (serum of patient G2 (adult, general immediate type allergy to wheat), sequence without X): Key

2230 (IRNYRV; REGION 1..6: note = epitope) [compound 2230]
Epitope sequence binding to IgE antibody, rank of the sequence (Key/Preferably/More preferably) [5]: Key

1714 (KEAANF; REGION 1..6: note = epitope) [compound 1714]
epitope sequence binding to IgE antibody, rank (Key/Preferably/More preferably) (serum of patient P35 (WDEIA)): Preferably

1207 (FPPQQ; REGION 1..5: note = epitope) [compound 1207]
Epitope sequence binding to IgE antibody, rank of the sequence (serum of patient P34 (WDEIA), sequence without X): Key

2683 (KGPTL; REGION 1..5: note = epitope) [compound 2683]
Epitope sequence binding to IgE antibody, rank of the sequence (serum of patient P22 (WDEIA), partial sequence): Key

1870 (YTVRTLQR; REGION 1..8: note = epitope) [compound 1870]
epitope sequence binding to IgE antibody, rank (Key/Preferably/More preferably) (serum of patient P29 (WDEIA)): Preferably

1253 (PIQQQPQPFP; REGION 1..10: note = epitope) [compound 1253]
Epitope sequence binding to IgE antibody, rank of the sequence (serum of patient P36 (WDEIA), sequence without X): Preferably

1888 (TVRTLQRT; REGION 1..8: note = epitope) [compound 1888]
epitope sequence binding to IgE antibody, rank (Key/Preferably/More preferably) [6]: Key

1946 (FPGQ; REGION 1..4: note = epitope) [compound 1946]
epitope sequence binding to IgE antibody, rank (Key/Preferably/More preferably) (serum of patient P22 (WDEIA)): Key

1940 (VPLVQ; REGION 1..5: note = epitope) [compound 1940]
epitope sequence binding to IgE antibody, rank (Key/Preferably/More preferably) (serum of patient P21 (WDEIA)): Key

2717 (YKIGG; REGION 1..5: note = epitope) [compound 2717]
Epitope sequence binding to IgE antibody, rank of the sequence [7]: Key

1875 (TVRTLQRTV; REGION 1..9: note = epitope) [compound 1875]
epitope sequence binding to IgE antibody, rank (Key/Preferably/More preferably) (serum of patient P31 (WDEIA)): More preferably

2220 (NYRV; REGION 1..4: note = epitope) [compound 2220]
Epitope sequence binding to IgE antibody, rank of the sequence (Key/Preferably/More preferably) (serum of patient P2 (WDEIA), sequence without X): Key

2703 (YKIGGIGTV; REGION 1..9: note = epitope) [compound 2703]
Epitope sequence binding to IgE antibody, rank of the sequence (serum of patient P3 (WDEIA), partial sequence): Preferably

2330 (AIRAI; REGION 1..5: note = epitope) [compound 2330]
Epitope sequence binding to IgE antibody, rank of the sequence (Key/Preferably/More preferably) [4]: Key

2436 (WSGKTE; REGION 1..6: note = epitope) [compound 2436]
Epitope sequence binding to IgE antibody, rank of the sequence (Key/Preferably/More preferably) (serum of patient P26 (WDEIA), sequence without X): Key

1378 (QQPLPPQQQP; REGION 1..10: note = epitope) [compound 1378]
Epitope sequence binding to IgE antibody, rank of the sequence (serum of patient P9 (WDEIA), sequence without X): Preferably

2716 (YKIGGI; REGION 1..6: note = epitope) [compound 2716]
Epitope sequence binding to IgE antibody, rank of the sequence [7]: Preferably

1313 (NVEN; REGION 1..4: note = epitope) [compound 1313]
Epitope sequence binding to IgE antibody, rank of the sequence [8]: Key

1380 (PWQQQPLPPQ; REGION 1..10: note = epitope) [compound 1380]
Epitope sequence binding to IgE antibody, rank of the sequence (serum of patient P10 (WDEIA), sequence without X): Key

2297 (ERFEK; REGION 1..5: note = epitope) [compound 2297]
Epitope sequence binding to IgE antibody, rank of the sequence (Key/Preferably/More preferably/Further preferably) (serum of patient P50 (child, general immediate type allergy to wheat), sequence without X): Key

2262 (RNYRVAI; REGION 1..7: note = epitope) [compound 2262]
Epitope sequence binding to IgE antibody, rank of the sequence (Key/Preferably/More preferably) (serum of patient G1 (adult, general immediate type allergy to wheat), sequence without X): Key

1434 (YLQPQQPI; REGION 1..8: note = epitope) [compound 1434]
Rank of partial sequence as epitope binding to IgE antibody [1]: Preferably

1225 (QQPIQQQP; REGION 1..8: note = epitope) [compound 1225]
Epitope sequence binding to IgE antibody, rank of the sequence [8]: Preferably

1208 (QQFPPQQ; REGION 1..7: note = epitope) [compound 1208]
Epitope sequence binding to IgE antibody, rank of the sequence (serum of patient P35 (WDEIA), sequence without X): Key

1430 (YLQPQQPIS; REGION 1..9: note = epitope) [compound 1430]
Rank of partial sequence as epitope binding to IgE antibody (serum of patient P15 (WDEIA), sequence without X): Preferably

1949 (VPLVQQ; REGION 1..6: note = epitope) [compound 1949]
epitope sequence binding to IgE antibody, rank (Key/Preferably/More preferably) (serum of patient P24 (WDEIA)): Key

1747 (EAANFT; REGION 1..6: note = epitope) [compound 1747]
epitope sequence binding to IgE antibody, rank (Key/Preferably/More preferably) [6]: Key

2740 (KIGGI; REGION 1..5: note = epitope) [compound 2740]
Epitope sequence binding to IgE antibody, rank of the sequence (serum of patient P31 (WDEIA), partial sequence): Key

1417 (QQPISQQQAQ; REGION 1..10: note = epitope) [compound 1417]
Epitope sequence binding to IgE antibody, rank of the sequence (serum of patient P8 (WDEIA), sequence without X): Key

1711 (KEAANFT; REGION 1..7: note = epitope) [compound 1711]
epitope sequence binding to IgE antibody, rank (Key/Preferably/More preferably) (serum of patient P34 (WDEIA)): Preferably
